Results taken from patent US20240092772A1, “CRYSTALLINE FORM OF A PIPERAZINYL-THIAZOLE DERIVATIVE” (Idorsia Pharmaceuticals Ltd, priority 2021, published 2024).

Tests used:
[1] = Solid-state stability of crystalline form 3 on isolation/drying (XRPD); assay type: physicochemical; settings: isolation by filter centrifugation or drying under reduced pressure; transforms to crystalline form 1
Method: In another experiment 0.04 mL of MeCN is added to 20 mg of COMPOUND (e.g. as obtained from Example 1) in a standard glass HPLC vial, and the suspension in the closed vial is submitted to a temperature variation cycle while being stirred with a magnetic stirring bar. Temperature cycling (repetition of heating 20° C. to 40° C. in 1 hour and cooling 40° C. to 20° C. in 4 hours) and stirring for 25 hours is done in a Polar Bear device (Cambridge reactor design, UK) The obtained solid, when analyzed without drying, is COMPOUND in crystalline form 3.
Form 3 is observed by XRPD when measured still in presence of sufficient MeCN. Isolation by filter centrifugation or isolation and drying under reduced pressure leads to the transformation of crystalline form 3 to crystalline form 1, pointing to the metastable nature of form 3 in absence of sufficient MeCN.

[2] = Gravimetric vapor sorption (GVS), hygroscopicity determination; assay type: physicochemical; settings: 25° C.; variation in mass between 40% and 80% RH in first sorption scan; classification in analogy to Ph. Eur. 10.0, section 5.11
Method: Gravimetric Vapor Sorption (GVS) Moisture sorption isotherm was collected on a dynamic vapor sorption analyzer IGASORP HAS-036-080 from Hiden Isochema operated with Isochema HIsorp 2019 software version 4.02.0070. Typically, about 30 mg of a sample is placed in the sample holder and is submitted to a stepwise equilibration at defined relative humidity (RH) setpoints at 25° C. The sample mass is recorded at these setpoints and are used to build the moisture sorption isotherm. The relative humidity setpoints used were 40% to 0% RH followed by 0% to 95% RH in 5% RH intervals. Data shown consist of the moisture sorption isotherm in the range 5% to 90% of the sample submitted to the increasing relative humidity. The variation in mass between 40% relative humidity and 80% relative humidity in the first sorption scan is evaluated for the hygroscopicity determination. The classification is done in analogy to the European Pharmacopeia (Ph. Eur.) 10.0, section 5.11.

| SMILES | Stability of the crystalline form in absence of sufficient MeCN [1] | GVS (hygroscopicity) [2] |
| --- | --- | --- |
| Cc1ncn(CC(=O)N2CCN(c3sc(C(F)(F)F)nc3-c3cnc(C(F)(F)F)nc3)C[C@H]2CCO)n1 [crystalline form 3, 1-{(R)-2-(2-Hydroxy-ethyl)-4-[2-trifluoromethyl-4-(2-trifluoromethyl-pyrimidin-5-yl)-thiazol-5-yl]-piperazin-1-yl}-2-(3-methyl-[1,2,4]triazol-1-yl)-ethanone] | metastable |  |
| Cc1ncn(CC(=O)N2CCN(c3sc(C(F)(F)F)nc3-c3cnc(C(F)(F)F)nc3)C[C@H]2CCO)n1 [COMPOUND in crystalline form 1, 1-{(R)-2-(2-Hydroxy-ethyl)-4-[2-trifluoromethyl-4-(2-trifluoromethyl-pyrimidin-5-yl)-thiazol-5-yl]-piperazin-1-yl}-2-(3-methyl-[1,2,4]triazol-1-yl)-ethanone] |  | Not hygroscopic |
